This is an account of results in US20140099354A1, “BIOPASSIVATING MEMBRANE STABILIZATION BY MEANS OF NITROCARBOXYLIC ACID-CONTAINING PHOSPHOLIPIDS IN PREPARATIONS AND COATINGS” (priority 2011, published 2014).

One data set has as its system ovarian tissue strips. Nature of the data set: Cryopreservation of ovarian tissue strips: intact follicles. As to conditions: liquid nitrogen 14 days, cultured 14 days.
The next data set has as its system sciatic nerve. Nature of the data set: Viability of cryopreserved nerve grafts (Annexin-V staining, FACS). The format is cell-based, rats. The following applies: 100 mmolar solution 1 hour; −30° C. 72 hours.
Data set [1] deals with human umbilical venous endothelial cells (HUVEC). Nature of the data set: Endothelial cell homing on coated cobalt-chromium metal grids. The format is cell-based. The following applies: days 3, 7 and 14. How it is done:
To investigate the cell homing of endothelial cells onto phospholipid-coated artificial surfaces, metal grids with a cobalt-chromium alloy such as has been described in example 2 were coated. Coatings were performed with nitro-carboxylic acid-containing phosphatidylcholine according to the examples N2-N6 and O6. These were special product mixtures of different esterified 1,2-di(nitro linoleoyl)-sn-glycero-3-phosphatidylcholines (N2), from different esterified 1,2-di(nitro arachidonoyl)-sn-glycero-3-phosphatidylcholines (N3), from different esterified 1,2-di(nitroarachidonoyl)-sn-glycero-3-phosphatidylcholines (N4), different esterified 1,2-di(nitro-γ-linolenoyl)-sn-glycero-3-phosphatidylcholines (N5) or different esterified 1,2-di(nitro-DHA)-sn-glycero-3-phosphatidylcholines (N6) and mixture of 1-palmitoyl-2-(10-hydroxy-9-nitro-α-linolenoyl)-sn-3-glycero-phosphocholine and 1-palmitoyl-2-(9-hydroxy-10-nitro-α-linolenoyl)-sn-3-glycero-phosphocholine (06). Uncoated metal grids served as controls. The grids were placed in a culture dish containing a gel matrix on which human umbilical venous endothelial cells (HUVEC) were grown to confluence. The culture media consisted of 5% FCS, and was changed every second day. Cultivation was performed according to standard procedures. The culture dishes were carefully washed superficially several times after 3, 7, and 14 days with saline. […]

A short description of data set [2]: Transisomerization of unsaturated fatty acids in coatings on balloon catheters (FTIR). The format is physicochemical. The source says:
The natural phospholipids POPC and SLPE, as well as the analogous nitrated phospholipids as shown in example C(PNOPC) and […]), as well as the phospholipids according to examples […], and S as a mono substance and as a combination of the native phospholipids and the corresponding nitro-carboxylic acid (s)-containing phospholipids mixed in a ratio of 1:1 were used for this investigation. Balloon catheters were coated by means of the Langmuir-Schaefer procedure where the balloon segment was aligned longitudinally and coaxial to the solution surface, dipping into the liquid for approx. 1 mm over the entire length. Then the catheter was slowly rotated around its axis 5 times. […] The solution was cooled and given to the coating solution then. In case of incomplete dissolution of the phospholipids or if they separated when cooled, DMSO was added at a concentration of up to 20 vol.-%, preferably up to 10 vol.-%. After coating, the catheters were vacuum dried for 8 hours in order to remove residual solvent. The abrasion or loss of coating layers was determined by weighing the catheter before and after coating as well as after the mechanical stability test in the tubing system as described above using a high precision balance. In order to examine the long-term stability of the coating, catheters coated with phospholipids were sealed with polyethylene glycol 1000 (Roth, Germany). For that purpose PEG 1000 was melted and mixed with a 10% ethanol solution at 50° C. A portion of the phospholipid-coated balloon catheter was coated by means of dip-coating in this PEG solution at 50° C., and dried thereafter for 8 hours. Stability of cis-conformity of unsaturated fatty acids of the phospholipids investigated was determined after heat treatment at 60° C. for three hours in a heating cabinet. After 24 hours and after 2 months the phospholipids coated on the balloon surface were detached and analyzed. Detachment was carried out in 50 ml of a chloroform:methanol mixture (3:1, v: v). A 10 μl aliquot was used for a FTIR spectroscopy. For this purpose the samples were dropped on a ZnSe ATR crystal and then the solvent was evaporated. Degree of transisomerization was determined using the integral of intensity of proton resonance in comparison to that measured from a cis configuration of the reference substances. Measurements were performed 24 hours after coating, heat treatment and after 2 months of storage at 25° C. under sterile room air conditions.

The subject of data set [3] is HeLa, HUVEC and L929 fibroblast. Kind of data set: cells. The following applies: tested concentrations 10 μmol to 1 mmol; EC50 could not be calculated. The format is cell-based. How it is done:
(§1) Physiologically occurring phospholipids can be taken up by virtually all cell lines in large quantities. It is known that phospholipids that contain non-physiologically occurring fatty acid residues can cause cell lyses or death. Three cell lines (HeLa, HUVEC and L929 fibroblast) were cultured in a suitable culture medium of 5% FCS at 37° C. and 5% CO2 concentrations to a subconfluent concentration of 1.5×10^5 cells.
SOPC, DOPC, POPC, ONOPC, PNLPC, and the free fatty acids of OA, LA, NOOA, and NOLA were dissolved in 0.5% DMSO. […] Cell cultures were incubated for 24 h and 48 h. Thereafter, the culture medium was removed and the cells washed twice. Following this, cells suspensions were given in four vials to perform the following analysis:
For the determination of viability, phenol red was added to the suspended cells. After 4 h, the medium was renewed and 10 μl of the MTT solution was added. The cells were cultured for 4 hours, and then a 10% SDS solution was pipetted. After 24 h, absorption of formazan crystals was measured at 500 nm using a power wave X (bio-tek instruments, Inc., USA). For the quantitative comparison of toxicity, the EC50 was determined.

Data set [4] shares this test system. Kind of data set: Volumetric measurement of cells (Coulter counter). As to conditions: time-dependent increase after incubation. The data set is classed as cell-based. Here is the method: as §1
(§2) SOPC, DOPC, POPC, ONOPC, PNLPC, and the free fatty acids of OA, LA, NOOA, and NOLA were dissolved in 0.5% DMSO. Experiments were performed also with nitro-carboxylic acid-containing phospholipids according to examples N15-N20, G, O3, O5, P2, P5, P8, P9, P11 and Q. PL prepared as aqueous suspensions were added the culture flasks in order to achieve PL concentrations in the culture medium from 10 μmol to 1 mmol. Cell cultures were incubated for 24 h and 48 h. Thereafter, the culture medium was removed and the cells washed twice. Following this, cells suspensions were given in four vials to perform the following analysis:
Volumetric measurement of cells was done in a Histopenz (Sigma) solution with an effective NaCl concentration of 0.9% (approximately 290 mOsm) heated to 37° C. in which the cells were suspended; thereafter the solution was sonified for 2 minutes. Measurements were done using a Coulter counter Z2.

For data set [5] the test system is unchanged. Nature of the data set: Cell viability with the live/dead assay. The format is cell-based. Here is the method:
as §1, §2
Studies of cell viability were carried out with the live/dead assay (Molecular Probes). For this purpose, the cells were washed twice with PBS solution and then seeded into a culture medium. Incubation with the staining solution (in 0.1% DMSO) was carried out over 30 minutes in the dark. The viability analyses were performed using fluorescence microscopy.

The target of data set [6] is Glycophorin A (GpA) peptides (Homo sapiens, UniProt P02724). As to conditions: 10-50% (mol/mol) admixed to DSPC vesicles; versus native phospholipids.
Chain of Glycophorin A (GpA) peptides (P02724 92-114 limits assumed, species assumed): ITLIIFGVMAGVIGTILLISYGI
Description: The change of the Frster resonance energy transfer (FRET) of fluorescence-labelled peptides with α helical trans-membrane structure in a double lipid layer can be used for determination of the concentration of monomeric and dimeric trans-membrane helices and for quantitative determination of helix-helix interactions.
FRET measurements were carried out with fluorescence-marked Glycophorin A (GpA) peptides. The transmembrane GpA forms dimers, whereby the energy transfer can be measured. 5-carboxyfluorescein and tetramethyl-6-carboxyrhodamine were used as chromophores.
Degree of dimerization of the model protein was measured in a direct comparison between native phospholipids and the corresponding phospholipids with a nitrated alkyl chain for the given concentrations of phospholipids (10-50%, mol/mol) admixed to the DSPC vesicles.
For determination of the dimerization, the peptides of FL GpAwt and TAMRA GpAwt were weighed and dissolved in TFE. The measurements were carried out on a fluorescence spectrometer of type Aminco Bowman series 2 (Thermo Spectronic).

Description for sciatic nerve: The sciatic nerve was prepared and sectured in anesthetized rats. The nerve pieces were freed from connective tissue and divided into 3 parts. Specimens were placed in culture DMEM medium containing low a concentration of glucose (1 g/L) with L-glutamine (PAA, Pasching Austria) for 24 hours. […] Nerve specimens from the same animals that received no pretreatment served as controls. After incubation, the specimens were cultured for 24 hours. In a further control group, specimens were cryopreserved without any pretreatment. The specimens were covered with a sterile gauze pad moistened with culture medium. Thereafter the temperature was gradually cooled to −30° C. After 72 hours, the nerve pieces were gradually rewarmed to 37° C. After this, renewed culturing was done for 48 hours. The nerve pieces were dissected enzymatically then (collagenase A and D, Roche, Mannheim, Germany) followed by a mechanical separation through multiple uptake and release in a glass pipette. The isolated cells were washed and marked with a living/death staining (Annexin-V-Fluos staining Kit, Roche Diagnostics, Mannheim, Germany) and quantified using FACS analysis. The number of living cells identified was set in relation to the total cells count.

As for “1,2-di-(nitrolinoleoyl)-sn-glycero-3-phosphatidylcholines [Example N2]”, the “rate of intact follicles relative to the control group” value with ovarian tissue strips amounted to 94%. Moreover, the “proportion of living cells relative to non-frozen control” value with sciatic nerve is listed as 79%. Also, the “endothelial cell coverage and growth on coated struts” value in data set [1] is “slight tendency for a stronger growth of cells”.

With `CCCCCCCC/C=C\CCCCCCCC(=O)O[C@H](COC(=O)CCCCCCCCCCCCCCC)COP(=O)([O-])OCC[N+](C)(C)C` [POPC, 1-Palmitoyl-2-oleoyl-sn-glycero-3-PC, reference compound], the “proportion of trans-fatty acids” value in data set [2] (after heat treatment (60° C., three hours)) was determined as 80%. The degree of transisomerization in data set [2] (coatings after 2 months) turned out to be 95%; in data set [2] (top coating with PEG, after 2 month) it was 86%. Also, in data set [3], the “viability as quantified by the MTT assay” value is on record as “only slightly decreased”. Also, the “cell volume (increase in size to)” value in data set [4] worked out at 160%. Besides, the “viability according to the live/dead staining” value in data set [5] was “high rate of viability”.

Regarding “1,2-di-(nitro-DHA)-sn-glycero-3-phosphatidylcholines [Example N6]”, the “rate of intact follicles relative to the control group” value with ovarian tissue strips was 92%. For the same compound, in the data set on sciatic nerve, the “proportion of living cells relative to non-frozen control” value came to 72%. Moreover, in data set [1], the “endothelial cell coverage and growth on coated struts” value was “slight tendency for a stronger growth of cells”.

With `CCCCC/C=C\C/C=C(\CCCCCCCC(=O)O[C@H](COC(=O)CCCCCCCCCCCCCCCCC)COP(=O)([O-])OCC[N+](C)(C)C)[N+](=O)[O-]` [Example P13, 1-stearoyl-2-(E-9-nitrolinoleoyl)-sn-3-glycerophosphocholine], the “degree of dimerization of the model membrane protein” value in data set [6] is on record as “significantly greater reduction of dimerization”.
